Assay [1] deals with ADH enzyme. The conditions noted are these: cited from earlier work. From the text: The results of molecular docking were visualized by selecting three peptides with the lowest binding energy, as depicted in Figure 5. Three peptides successfully docked onto the hydrophobic cavity near the ADH active site, primarily binding to ADH through hydrogen bonds and hydrophobic interactions. Twelve hydrogen bonds were formed between SSNCQPF and ADH residues (His 44, Gly 181, Leu 182, Gly 183, Val 245, Ser 246, Val 247, Met 270, Glu 333, Gly 339, Arg 340). Ten hydrogen bonds were formed between QPQQP ...

Assay [2] deals with T1, ADH (Saccharomyces cerevisiae, UniProt P00330).
T1 sequence (P00330 1-348): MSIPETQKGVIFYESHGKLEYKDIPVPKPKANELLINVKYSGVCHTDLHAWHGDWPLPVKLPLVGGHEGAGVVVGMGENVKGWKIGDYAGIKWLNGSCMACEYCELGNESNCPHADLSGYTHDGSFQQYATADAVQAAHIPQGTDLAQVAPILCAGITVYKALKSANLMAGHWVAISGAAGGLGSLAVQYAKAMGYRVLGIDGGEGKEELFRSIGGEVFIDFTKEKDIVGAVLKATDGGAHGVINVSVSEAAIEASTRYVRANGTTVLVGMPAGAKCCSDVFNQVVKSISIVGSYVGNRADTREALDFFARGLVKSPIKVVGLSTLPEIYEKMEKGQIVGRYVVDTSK
As to the kind of experiment: ADH activation activity in vitro (improved assay kit method). The class given is biochemical. To be noted: synthetic peptides; ADH 0.2 U/mL, NAD+ and ethanol, 37 °C, absorbance 340 nm every 10 s for 10 min; mean ± SD of three parallel experiments. The procedure: The ADH activation activity in vitro was detected using an improved assay kit method. The specific steps are as follows: 50 μL of the sample solution was mixed with 150 μL of the assay reagent (including buffer, NAD^+, and ethanol); after equilibrating at 37 °C for 5 min, 50 μL of ADH (0.2 U/mL) was added to initiate the reaction. The absorbance at 340 nm was measured using a Varioskan Flash (Thermo Fisher Scientific, Waltham, MA, USA) full-wavelength scanning multimode reader, with readings taken every 10 s for 10 min. Distilled water was used as a negative control in place of the sample. The reaction kinetics curve was fitted, and the first derivative of the curve at 0 min was calculated as the initial reaction rate. The initial reaction rate of the sample was recorded as Vs, while that of the negative control was recorded as V0. The ADH activation rate of the sample can be calculated using the following equation:(1) ADH activation activity %=VS−V0/V0×100

The values that follow come from article PMC11013139, “Identification of Corn Peptides with Alcohol Dehydrogenase Activating Activity Absorbed by Caco-2 Cell Monolayers” (Molecules, 2024).

Where no end group is shown, it is not given here.

For “Lys-Pro-Cys [KPC, Chicken-derived tripeptide KPC (Lys-Pro-Cys)]”, the “binding energy between peptide KPC and ADH enzyme” value in assay [1] is -6.6 kcal/mol. QPQQPW [QPQQPW]: the midpoint of the response in assay [2], the EC50, lay at 2730 ± 130 µM.

Substance SSNCQPF [SSNCQPF] yielded an EC50 in assay [2] of 1350 ± 220 µM.

For the substance TGCPVLQ [TGCPVLQ], the midpoint of the response in assay [2], the EC50, lay at 2260 ± 160 µM.
